Measured values taken from patent EP4656642A1, “ESTROGEN RECEPTOR PROTEOLYSIS TARGETING CHIMERA COMPOUND AND USE THEREOF” (GAN & LEE PHARM CO., LTD, priority 2023, dated 2024).
Where “and” joins values, the source holds several entries; their conditions need not be identical. Identical values can stand only once.

Experiments:
Format in all cases: cell-based
T-47D cells = experiment: Inhibition of cell proliferation in T-47D cells (CCK-8, 6 days); settings: 6 days of treatment
Source text: Test Example 2: Inhibitory effect of the PROTAC compounds provided in the present disclosure on cell proliferation in T-47D cells (source ATCC)
The complete medium required for T-47D cells was 1640 ( ATCC, Product number: A10491-01) basal medium containing 10% fetal bovine serum. T-47D cells were inoculated in 96-well plates at a density of 3,000 cells/well, and different concentrations of the PROTAC compounds 1-55 provided in the examples of the present disclosure and a positive control sample ARV-471 (source: Innochem) were prepared to treat cells, and the cells were treated at 37°C in a cell culture incubator with 5% CO2 for 6 days. Cell viability was detected using a CCK-8 kit (Beyotime, Product number: C0040) according to the manufacturer's instructions. […] Table 2 IC50 values for inhibition of the proliferation of T-47D cells by the PROTAC compounds provided by the present disclosure and the positive control sample

ERα [1] = target: T1, ERα (Homo sapiens, UniProt P03372); experiment: Degradation of ERα in MCF-7 cells (immunoblotting, 4 h)
T1 sequence (P03372 1-595): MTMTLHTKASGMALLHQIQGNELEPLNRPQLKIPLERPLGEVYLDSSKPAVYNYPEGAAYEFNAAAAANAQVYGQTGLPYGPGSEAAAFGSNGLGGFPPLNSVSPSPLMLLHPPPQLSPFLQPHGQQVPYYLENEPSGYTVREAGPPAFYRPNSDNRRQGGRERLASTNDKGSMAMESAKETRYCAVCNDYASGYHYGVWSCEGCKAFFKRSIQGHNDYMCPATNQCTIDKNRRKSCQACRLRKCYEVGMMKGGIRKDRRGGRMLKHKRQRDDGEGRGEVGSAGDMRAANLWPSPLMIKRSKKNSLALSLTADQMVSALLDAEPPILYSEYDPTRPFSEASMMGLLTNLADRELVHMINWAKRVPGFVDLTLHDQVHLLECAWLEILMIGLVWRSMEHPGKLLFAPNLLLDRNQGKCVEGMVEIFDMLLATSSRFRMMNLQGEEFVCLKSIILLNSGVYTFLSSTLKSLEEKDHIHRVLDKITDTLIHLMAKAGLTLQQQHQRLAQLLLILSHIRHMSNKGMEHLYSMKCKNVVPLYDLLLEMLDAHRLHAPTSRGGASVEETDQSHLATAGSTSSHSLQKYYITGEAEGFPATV
Procedure, shortened: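 Degradation rate reflects ERα band intensity, corrected to an internal reference protein, relative to control. Values come from Western blotting of lysates from MCF-7 cells exposed 4 h at 37°C to compounds at final concentrations of 0.15-1000nM.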

ERα [2] = target: T1, ERα; experiment: Degradation of ERα in T-47D cells (immunoblotting, 4 h); parameters: host or cells: T-47D
Procedure, shortened: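 ERα protein levels were assessed by immunoblot of RIPA lysates (with protease inhibitor) after 4 h exposure at 37°C. Compound was added in DMSO to T-47D cells at final concentrations of 0.15-1000 nM.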

MCF-7 cells = experiment: Inhibition of cell proliferation of MCF-7 cells (CCK-8, 9 days)
Procedure, shortened: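 Read-out was CCK-8 viability after 9-day continuous exposure (37°C, 5% CO2) of MCF-7 cells plated at 800/well in 10% FBS DMEM across several compound concentrations. Values are proliferation IC50s.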

[3] = treated for 9 days, CCK-8 kit (Table 6)
[4] = 9 days of treatment, CCK-8, Table 5

| SMILES | IC50 (T-47D cells; Table 2) | Degradation rate (%) of ERα in MCF-7 cells (ERα [1]; 10nM compound) | Degradation rate (%) of ERα in T-47D cells (ERα [2]; 10nM compound) | IC50 (T-47D cells; Table 3) | Degradation rate (%) of ERα in MCF-7 cells (ERα [1]; 1nM compound) | IC50 (MCF-7 cells; [3]) | Degradation rate (%) of ERα in T-47D cells (ERα [2]; 1nM compound) | IC50 (MCF-7 cells; [4]) |
| --- | --- | --- | --- | --- | --- | --- | --- | --- |
| O=C1CCC(N2C(=O)c3cc4c(cc3C2=O)C2(CCN(CC3CN(c5ccc([C@@H]6c7ccc(O)cc7CC[C@@H]6c6ccccc6)cc5)C3)CC2)CO4)C(=O)N1 (some centres unmarked) [B3] | 100 nM | -14% | -18% |  |  |  |  |  |
| O=C1CCC(N2Cc3c(ccc4c3OCC43CCN(C4CC5(CCC6(CCN(c7ccc([C@@H]8c9ccc(O)cc9CC[C@@H]8c8ccccc8)cc7)CC6)CC5)C4)CC3)C2=O)C(=O)N1 (some centres unmarked) [B23] |  | 40% |  | 10.2 nM | 17% | 417 nM |  |  |
| O=C1CCC(N2Cc3c(ccc4c3OCC43CCN(C4CC5(CCC6(CC5)CN(C5CCN(c7ccc([C@@H]8c9ccc(O)cc9CC[C@@H]8c8ccccc8)cc7)CC5)C6)C4)CC3)C2=O)C(=O)N1 (some centres unmarked) [K16] |  |  |  | 3 nM |  | 320 nM and 214 nM |  |  |
| CC1CC(N2CCC3(CC2)COc2c3ccc3c2CN(C2CCC(=O)NC2=O)C3=O)CCN1C1CCN(c2ccc(C3c4ccc(O)cc4CCC3c3ccccc3)cc2)CC1 (centres unmarked) [K22] |  |  | 19% | 8.52 nM |  | 24.3 nM | -3% |  |
| O=C1CCC(N2Cc3cc4c(cc3C2=O)OCC2(CCN(C3CC5(CCN(c6ccc([C@@H]7c8ccc(O)cc8CC[C@@H]7c7ccccc7)cc6)CC5)C3)CC2)O4)C(=O)N1 (some centres unmarked) [M11] | 1 nM |  | 56% |  |  |  | 17% | 20 nM |
| O=C1CCC(N2Cc3cc4c(cc3C2=O)CCC2(CN(C3CC5(CCN(c6ccc([C@@H]7c8ccc(O)cc8CC[C@@H]7c7ccccc7)cc6)CC5)C3)C2)O4)C(=O)N1 (some centres unmarked) [M13] | 1.6 nM |  | 27% |  |  |  | 13% | 70 nM |
| O=C1CCC(N2C(=O)c3cc4c(cc3C2=O)OC2(CC4)CN(CC3CCC4(CC3)CN(c3ccc([C@@H]5c6ccc(O)cc6CC[C@@H]5c5ccccc5)cc3)C4)C2)C(=O)N1 (some centres unmarked) [M14] |  |  | -17% | 30 nM |  | 23 nM | -29% |  |

Further molecules by falling IC50 (T-47D cells; Table 3), results first:

| IC50 (T-47D cells; Table 2) | Degradation rate (%) of ERα in MCF-7 cells (ERα [1]; 10nM compound) | Degradation rate (%) of ERα in T-47D cells (ERα [2]; 10nM compound) | IC50 (T-47D cells; Table 3) | Degradation rate (%) of ERα in MCF-7 cells (ERα [1]; 1nM compound) | IC50 (MCF-7 cells; [3]) | Degradation rate (%) of ERα in T-47D cells (ERα [2]; 1nM compound) | IC50 (MCF-7 cells; [4]) | SMILES |
| --- | --- | --- | --- | --- | --- | --- | --- | --- |
| 2 nM |  |  | 2 nM |  | 12 nM |  | 10 nM | O=C1CCC(N2Cc3cc4c(cc3C2=O)CCC2(CCN(C3CC5(CCN(c6ccc([C@@H]7c8ccc(O)cc8CC[C@@H]7c7ccccc7)cc6)CC5)C3)CC2)O4)C(=O)N1 (some centres unmarked) [M12] |
|  | 13% | 67% | 1.72 nM | 2% |  | 56% |  | N#CC1(CN2CCC3(CC2)COc2c3ccc3c2CN(C2CCC(=O)NC2=O)C3=O)CCN(CC2CCN(c3ccc([C@@H]4c5ccc(O)cc5CC[C@@H]4c4ccccc4)cc3)CC2)CC1 (some centres unmarked) [N7] |
|  | 68% | 79% | 1.18 nM | 54% |  | 58% |  | CC1(C(=O)N2CCC(N3CCC4(CC3)COc3c4ccc4c3CN(C3CCC(=O)NC3=O)C4=O)CC2)CCN(c2ccc([C@@H]3c4ccc(O)cc4CC[C@@H]3c3ccccc3)cc2)CC1 (some centres unmarked) [N1] |
|  | 55% | 62% | 0.87 nM | 34% |  | 35% |  | O=C1CCC(N2Cc3c(ccc4c3OCC43CCN(CC4(F)CCN(CC5CCN(c6ccc([C@@H]7c8ccc(O)cc8CC[C@@H]7c7ccccc7)cc6)CC5)CC4)CC3)C2=O)C(=O)N1 (some centres unmarked) [N6] |
